Data on two compounds can be found in paper PMC6271730, “Bioactive Secondary Metabolites from Phomopsis sp., an Endophytic Fungus from Senna spectabilis” (Molecules, 2014).

As a reminder, the IC50 is the concentration needed to halve the response being measured.

This test has as its target T1, Myeloperoxidase (MPO, EC 1.11.1.7) (Homo sapiens, UniProt P05164).
T1 construct: commercial purified enzyme (Planta Natural Products, Vienna); mature heavy and light chains come from one precursor
The test can be described thus: MPO chlorination activity, taurine chloramine / TMB oxidation at […] nm. The class given is biochemical.

SMILES strings stand for the structures. Like-named read-outs stand apart in the source and are kept apart here. Some results are limits rather than exact numbers.

T1 sequence (P05164 165-273): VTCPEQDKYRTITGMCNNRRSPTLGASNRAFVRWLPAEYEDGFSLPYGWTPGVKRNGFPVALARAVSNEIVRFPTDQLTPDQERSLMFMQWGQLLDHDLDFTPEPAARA
T1 sequence (P05164 279-745): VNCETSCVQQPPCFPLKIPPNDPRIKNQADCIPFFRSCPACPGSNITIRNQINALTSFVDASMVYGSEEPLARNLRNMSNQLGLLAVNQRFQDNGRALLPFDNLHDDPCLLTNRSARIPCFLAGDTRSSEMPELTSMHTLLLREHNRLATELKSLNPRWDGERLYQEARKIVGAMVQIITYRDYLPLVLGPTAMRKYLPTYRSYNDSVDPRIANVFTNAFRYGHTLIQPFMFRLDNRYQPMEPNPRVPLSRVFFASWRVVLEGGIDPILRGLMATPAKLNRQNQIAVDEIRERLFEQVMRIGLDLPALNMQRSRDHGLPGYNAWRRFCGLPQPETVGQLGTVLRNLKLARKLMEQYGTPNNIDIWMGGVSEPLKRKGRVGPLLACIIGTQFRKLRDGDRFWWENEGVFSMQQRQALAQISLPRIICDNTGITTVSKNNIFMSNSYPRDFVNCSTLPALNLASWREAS

Regarding `COc1cc(O)c2c(=O)oc3cc(O)cc(C)c3c2c1` [compound 4, alternariol monomethyl ether], where the note is “read-out: IC50”, the IC50 is more than 50 µM. `Cc1cc(O)cc2oc(=O)c3c(O)cc(O)cc3c12` [compound 5, alternariol] had a concentration for half-maximal inhibition (IC50) of more than 50 µM.
